Reference: patent US9642361B2, “Method for changing the development pattern, increasing the growth and the accumulation of starch, changing the structure of starch and increasing the resistance to water stress in plants” (IDEN BIOTECHNOLOGY, S.L., priority 2010, dated 2017)

Legend:
[1] = test system: Arabidopsis thaliana plants; experiment: Starch content in leaves of Arabidopsis plants cultured next to solutions of volatile compounds; format: in vivo; conditions: for starch accumulation in leaves: 2 cubic centimeters of 5% aqueous solution in 500 cubic centimeter box, two days
Experimental: To that end, the plants were cultured in Petri dishes containing solid MS medium with 90 mM sucrose. The plants germinated and were grown for two weeks in growth chambers with a photoperiod of 16 h of light (300 μmol of photons s^−1 m^−2) and at a constant temperature of 24° C.
The Petri dishes containing completely developed plants were placed in 500 cubic centimeter grow boxes with the particularity that, instead of microbial cultures, […] were introduced in said boxes in each case: indol, DTT (dithiothreitol), NAA (1-naphthaleneacetic acid), β-mercaptoethanol, salicylic acid, jasmonic acid, cysteine, acetoin, ethanol, methanol, β-hydroxybutyrate, butanediol, propanoic acid, acetic acid, acetaldehyde, formic acid or butyric acid, without there being any physical contact between the plant and the solution. The ethylene was provided in the form of ethephon powders. The boxes were sealed and leaves were harvested after two days of incubation to analyze starch content. Leaves were harvested at the end of the light period. As a negative control, the Petri dishes containing completely developed plants were cultured for two days in sealed plastic boxes together with a Petri dish containing 2 cubic centimeters of water in the absence of any of the volatile compounds assayed.
Starch was measured using an amyloglucosidase-based test kit (Boehringer Mannheim, Germany).

[2] = test system: leaves cut from Arabidopsis; experiment: Starch accumulation in cut Arabidopsis leaves with transcription/translation inhibitors in presence of fungal volatiles; format: in vivo, Arabidopsis thaliana; conditions: 50 μM cycloheximide or 200 μM cordycepin; after 2 hours of incubation
Experimental: The experiment of section 5.1 was repeated, using in this case leaves cut from Arabidopsis incubated in Petri dishes with solid MS medium supplemented with 90 mM sucrose and, where appropriate, with 50 micromoles (μM) of translation inhibitor cycloheximide (Sigma) and 200 micromoles (μM) of transcription inhibitor cordycepin (Sigma) (Fritz, C. C. et al., 1991: Proc. Natl. Acad. Sci. USA 88: 4458-4462; Hayashi, T. and Takagi, S., 2003; Plant Cell Physiol. 44: 1027-1036; Dhonukshe et al., 2006: Developmental Cell 10: 137-150). The dishes were deposited in 500 cubic centimeter boxes in which cultures of Alternaria alternata had previously been deposited.

[3] = test system: detached potato leaves; experiment: Starch content in detached potato leaves with added amino acids, with or without FVs; format: in vivo, Solanum tuberosum; conditions: exogenously added amino acid, +FV, 2 days
Experimental: FIG. 19: Graph depicting the starch content (expressed as μmoles of glucose per gram of fresh weight) measured in potato plants cultured for 2 days in MS supplemented with 90 mM sucrose and the indicated concentrations of cysteine, glycine, serine and methionine in the absence (−FV) or in the presence (+FV) of volatiles emitted by A. alternata grown in solid MS medium supplemented with 90 mM sucrose.
Therefore, it was investigated whether plastidial cysteine provision impairments are directly involved in MIVOISAP by measuring the starch content in detached potato leaves cultured in the presence and in the absence of FVs emitted by Alternaria alternata, and in the presence of different concentrations of cysteine.

| Compound | starch accumulation in leaves [1] | further results |
| --- | --- | --- |
| O=CO [formic acid] | promote starch overaccumulation | dose dependence of the effect on starch accumulation ([1]; solutions at 1%, 2% or 5% (v/v)): dose-dependent |
| Nc1ncnc2c1ncn2[C@@H]1O[C@H](CO)C[C@H]1O [cordycepin] |  | starch accumulation in presence of fungal volatiles [2]: strongly inhibit starch accumulation |
| CCCC(=O)O [butyric acid] | promote starch overaccumulation |  |
| CCC(=O)O [propanoic acid] | promote starch overaccumulation |  |
| N[C@@H](CS)C(=O)O [cysteine] |  | MIVOISAP (starch content) in detached leaves [3]: strongly suppressed |
| C[C@@H]1C[C@@H]([C@H](O)CC2CC(=O)NC(=O)C2)C(=O)[C@@H](C)C1 [cycloheximide] |  | starch accumulation in presence of fungal volatiles [2]: strongly inhibit starch accumulation |
| CC=O [acetaldehyde] | promote starch overaccumulation |  |
| CC(=O)O [acetic acid] | promote starch overaccumulation |  |
